# Data as given in article PMC7029660, “Functional Division Between the RecA1 and RecA2 Proteins in Myxococcus xanthus” (Frontiers in Microbiology, 2020).
# Molecular target: T1, RecA1 (Myxococcus xanthus, UniProt Q1DCC5)
# T1 construct: gene recA; full-length gene in pET15b, expressed in E. coli BL21(DE3), Ni-NTA purified
# T1 sequence (Q1DCC5 1-342): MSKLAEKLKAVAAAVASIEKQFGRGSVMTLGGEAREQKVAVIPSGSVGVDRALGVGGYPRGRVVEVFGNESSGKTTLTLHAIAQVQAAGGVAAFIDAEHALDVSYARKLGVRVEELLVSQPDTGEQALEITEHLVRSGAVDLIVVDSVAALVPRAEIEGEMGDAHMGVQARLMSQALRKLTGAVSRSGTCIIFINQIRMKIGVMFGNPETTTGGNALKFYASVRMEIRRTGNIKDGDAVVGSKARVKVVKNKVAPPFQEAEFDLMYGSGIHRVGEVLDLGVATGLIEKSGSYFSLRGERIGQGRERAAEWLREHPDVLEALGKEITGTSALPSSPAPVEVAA
# Assay: ATPase assay, released inorganic phosphate (kit)
# Format: biochemical
# Conditions: 3 mM ATP, 5 mM MgCl2, 1 mM CaCl2, pH 7.4, 32 °C; with or without ssDNA or dsDNA
structure (smiles),measurement,value
Nc1ncnc2c1ncn2[C@@H]1O[C@H](COP(=O)(O)OP(=O)(O)OP(=O)(O)O)[C@@H](O)[C@H]1O [ATP],"ATPase assay, released inorganic phosphate (kit)",RecA1 and RecA2 both exhibited low ATPase activities
